A short description of experiment [1]: Binding affinity to sh(-GUG-) RNA (unknown origin) at 10 uM by circular dichroism. On the technique in general: CD spectra are sensitive to the conformation of chiral molecules.
Experiment [2] in a line: Binding affinity to stem-duplex RNA (unknown origin) at 10 nM by fluorescence spectra analysis.
A short description of experiment [3]: Binding affinity to hairpin G2 RNA mutant (unknown origin) assessed as increase in fluorescence intensity at 10 nM by fluorescence spectra analysis.
Experiment [4] can be described thus: Binding affinity to G0 RNA (unknown origin) at 10 nM by fluorescence spectra analysis.
A short description of experiment [5]: Binding affinity to mismatch G2 RNA mutant (unknown origin) assessed as increase in fluorescence intensity at 10 nM by fluorescence spectra analysis.
A short description of experiment [6]: Binding affinity to sh(-CUG-) RNA (unknown origin) by fluorescence titration method.
A short description of experiment [7]: Binding affinity to sh(-GUG-) RNA (unknown origin) assessed as hypochromic effect at 10 uM by UV-vis spectral analysis.
Experiment [8] is described as follows: Binding affinity to wild-type full length pre-miRNA-17 (unknown origin) assessed as increase in fluorescence intensity at 10 nM by fluorescence spectra analysis.
Experiment [9] can be described thus: Binding affinity to sh(-CUA-) RNA (unknown origin) assessed as change in UV spectrum at 10 uM by UV-vis spectral analysis.
The nature of experiment [10]: Binding affinity to sh(-CUA-) RNA (unknown origin) assessed as increase in fluorescence at 10 nM by fluorescence spectra analysis.
Experiment [11] in a line: Binding affinity to sh(-CUA-) RNA (unknown origin) at 10 uM by circular dichroism.
Experiment [12] in a line: Binding affinity to ssRNA-5 mer (unknown origin) assessed as increase in fluorescence at 10 nM by fluorescence spectra analysis.
The nature of experiment [13]: Binding affinity to overhang G2 RNA mutant (unknown origin) assessed as increase in fluorescence intensity at 10 nM by fluorescence spectra analysis.
A short description of experiment [14]: Binding affinity to sh(-GUG-) RNA (unknown origin) by fluorescence titration method.
Experiment [15] is described as follows: Binding affinity to stem-loop RNA (unknown origin) at 10 nM by fluorescence spectra analysis.
Experiment [16] can be described thus: Binding affinity to sh(-GUA-) RNA (unknown origin) assessed as increase in fluorescence at 10 nM by fluorescence spectra analysis relative to control.
Experiment [17] can be described thus: Binding affinity to sh(-GUG-) RNA (unknown origin) assessed as increase in fluorescence at 10 nM by fluorescence spectra analysis relative to control.
Experiment [18] in a line: Binding affinity to sh(-GUG-) RNA (unknown origin) assessed as bathochromic effect at 10 uM by UV-vis spectral analysis.
Experiment [19] is described as follows: Binding affinity to sh(-CUG-) RNA (unknown origin) assessed as increase in fluorescence at 10 nM by fluorescence spectra analysis relative to control.
Experiment [20] is described as follows: Binding affinity to sh(-GUA-) RNA (unknown origin) by fluorescence titration method.
Experiment [21] is described as follows: Binding affinity to sh(-GUA-) RNA (unknown origin) at 10 nM by fluorescence spectra analysis.
Experiment [22] in a line: Binding affinity to sh(-CUA-) RNA (unknown origin) at 10 nM by fluorescence spectra analysis.
A short description of experiment [23]: Binding affinity to sh(-GUG-) RNA (unknown origin) at 10 nM by fluorescence spectra analysis.
A short description of experiment [24]: Binding affinity to ssRNA-5 mer (unknown origin) at 10 nM by fluorescence spectra analysis.
Experiment [25] is described as follows: Binding affinity to sh(-CUG-) RNA (unknown origin) at 10 nM by fluorescence spectra analysis.

Calls of active or inactive are those of the source. The calls are words filed in the database; no cut-off is given here.

The Kd is the concentration at which binding is half-saturated.

`CN(CCCNC(=O)Cn1cc2c(nc1=O)Nc1c(OCCN)cccc1O2)CCCNC(=O)Cn1cc2c(nc1=O)Nc1c(OCCN)cccc1O2`: the result in [1], in experiment [2], in experiment [3], in experiment [4], in [5] and in [7] was Active. Also, the result in experiment [8], in experiment [13], in [15], in [17] and in experiment [18] was Active. The values for the Kd in experiment [6], in experiment [14] and in experiment [20] were 27 nM, 9 nM and 103 nM, respectively. Further, the result in experiment [9], in [10], in experiment [11] and in experiment [12] was inactive. In addition, the fold change (FC) in experiment [16] stood at 2.6; in experiment [17], 7; in experiment [19], 4.1.
`CN(C)CCCNC(=O)Cn1cc2c(nc1=O)Nc1c(OCCN)cccc1O2`: the result in experiment [21], in experiment [22] and in [24] was inactive. Besides, the Kd was 155 nM in [6] and 202 nM in experiment [20]. Besides, the outcome in experiment [23] and in [25] was Active.

The values above are taken from ChEMBL document CHEMBL4387712, “Development of the binding molecules for the RNA higher-order structures based on the guanine-recognition by the G-clamp” (Bioorg Med Chem Lett, 2019).
